Data published in patent US7304091B2, “Statin-like compounds” (Myco TeO A/S, priority 2001, dated 2007).

Test system: male White rabbits
Test: Test of cholesterol-lowering effect in rabbits fed 1% cholesterol diet
Type: in vivo
Experimental: The cholesterol-lowering effect of Statan A was compared against a control in male White rabbits (purchased from Hvidesten, DK). The rabbits were housed in individual stainless steel cages with free access to water. The rabbits were divided into groups with similar baseline values of plasma cholesterol, which groups received: • 1) 5 mg/day PD498 (n=2)(Statan A), • 2) control group (n=4).
The rabbits were treated for 3 days. All animals were fed daily with 100 g of a standard rabbit diet (Altromin, Lage, Germany) containing 1% cholesterol. All test drugs were added to the diet. Remaining food were weighed.
Blood samples for cholesterol determination were drawn at baseline and at the three following days. Blood samples were taken from the marginal ear vein and the cholesterol determination was done the same day by enzymatic […] methods, using a commercially available kit (CHOD-PAP, Roche), on a COBAS MIRA auto-analyzer (Roche, Basle, CH).
Ten kg 1% cholesterol chow: 100 g cholesterol is dissolved in 500 g corn oil by heating to 40° C. […]

Row | SMILES | Total plasma cholesterol levels compared to the control group (male White rabbits, 5 mg/day in 1% cholesterol diet, treated for 3 days, blood at baseline and three following days, FIG. 2) | cholesterol-lowering effect (rabbits, same method as Example 13)
1 | Cc1ccc2cccc(O)c2c1CCC1CC(O)CC(=O)O1 (centres unmarked) [Statan A] | consistently lower | 
2 | Cc1ccc2ccccc2c1CC[C@@H]1C[C@@H](O)CC(=O)O1 [solistatin] |  | had cholesterol-lowering effect
